A value given as a limit tells only on which side of the number the result lay.

The subject of one data set is HCV replicon. The experiment in a line: IC50 assay with HCV luciferase replicon cell-line. The conditions noted are these: Hepatitis C virus, Huh-7; Huh7 cell line containing HCV replicon with luciferase reporter, 48 h. In kind it is cell-based. From the text:
Plating Cells: The cells used in these assays were a liver-derived Huh7 cell line containing an HCV replicon bearing a luciferase reporter gene. The Huh7 cell-line can be obtained from various sources including the Japanese Collection of Research Bioresources (JCRB), Osaka, Japan. The Huh7 cell line containing an HCV replicon bearing a luciferase reporter gene can be prepared essentially as described by Vrolijk J M, et al. (J Virol Methods. (2003) 110(2):201-9). Cells were passaged when they reached about 70% confluency.
These 0.5 mM dilutions were then used to further serially dilute the compounds in DMEM+2% FBS+0.5% DMSO to keep the concentration of DMSO in each condition identical.
The Glo Lysis Buffer and the Bright Glow reagent was allowed to warm to room temperature for about 30 min in the dark. […] The media was removed from cells, and the cells were gently washed with about 100 μL of phosphate buffered saline (PBS). […] It should be noted that luciferin has a half-life of approximately 30 min at room temperature after it is added to the plate. […] The data was saved and used to calculate the percent inhibition of luciferase activity at each drug concentration. […] Curve equation: (m1−m2)/(1+(x/m3)^m4); m1=100; m2=0.01; m3=0.01; m4=0.01; the equation is: […]
On the technique in general: Replicon systems follow genome replication, usually without infectious particles.

The next data set has as its system Huh7 cells. The data set can be described thus: TC50 MTS cell viability assay with Huh7 cells (48 h). In kind it is cell-based. The conditions noted are these: Homo sapiens, Huh-7. The text has this:
Plating Cells: Huh7 cells (a hepatocellular carcinoma cell-line; these cells can be obtained from the Japanese Collection of Research Bioresources (JCRB), Osaka, Japan) were used to determine the TC50 for representative compounds of the present invention. Briefly, Huh7 cells were passaged when they reached about 70% confluency. The cells were counted using a hemocytometer following dilution of the cells to about 0.5×10^5 cells per mL in DMEM with 10% fetal bovine serum (FBS). The cells were plated in a clear 96-well plate (about 5,000 cells in 100 μL per well). The cells were allowed to attach for about 24 hours at 37° C.
Treating of the cells: The DMEM media without phenol red containing 2% FBS was pre-warmed to 37° C. […] Following dilution, the final DMSO concentration was about 0.5% (v/v). […] The plates were then returned to the incubator and incubated with the cells for 48 h at 37° C.
(§1) The 96-well plate with cells incubated with test compound was removed from the 37° C. incubator. The appropriate amounts of the MTS and PMS reagents were removed from the kit and mixed well. The reagents were maintained in the dark due to their light sensitivity. […] The solutions were mixed completely in the wells prior to each reading.
(In general: Formazan colour is commonly taken as a measure of viable cells.)

Data set [1] relates to PK9 cells. The data set can be described thus: TC50 assay with inhibition of ENT1, PK9 cells. Type of data set: cell-based. The conditions noted are these: Homo sapiens, PK9, 48 h, PK9 cells (48 h). The method, then:
Plating Cells: Huh7 cells or PK9 cells were seeded in 96-well plates at a density of 5,000 cells/well or 2,500 cells/well, respectively, and the plates were incubated at 37° C. for 24 h to allow for cell attachment.
Treatment with equilibrative nucleoside transporter 1 (ENT1) Inhibitor: The media was then removed from the plates and replaced with media containing 2% FBS, 0.5% DMSO, and either 10 μM dipyramidole or 10 μM S-(4-nitrobenzyl)-6-thioinosine (NBTI).
Treating with Control & Compound 1: After incubation with the ENT1 inhibitor, the cells were treated with each compound at final concentrations ranging from 500 μM to 0 μM in triplicate in media containing 2% FBS, 0.5% DMSO, and either 10 μM dipyridamole or 10 μM NBTI.

The test system of data set [2] is PK9 cells. The experiment in a line: TC50 assay, effect of deficient deoxycytidine kinase activity, PK9 cells. In kind it is cell-based. As to conditions: Homo sapiens, 48 h, read-out: TC50 (μM), 48 h treatment. The method, then: (§2) Plating Cells: PK9 or RPK9 cells were seeded in 96-well plates at a density of 2,500 cells/well or 2,500 cells/well, respectively, and the plates were incubated at 37° C. for 24 h to allow for cell attachment.
(§3) Treating with Control & Compound 1: The cells were treated with each compound at final concentrations ranging from 500 μM to 0 μM in triplicate in media containing 2% FBS and 0.5% DMSO.
(§4) The RPK9 cells are described in Saiki, T., et al. (2012) Biochim. Biophys. Res. Commun. 421, 98-104).

The test system of another data set is RPK9 cells. The experiment in a line: cells. As to conditions: Homo sapiens, 48 h, read-out: TC50 (μM), 48 h treatment. The method, then:
as §2, §3, §4

A further data set relates to Huh7. The data set can be described thus: TC50 assay in different human cell lines (96 h), Huh7. Type of data set: cell-based. As to conditions: Huh-7, about 96 h, MTS assay. The method, then:
as §1
(§5) Plating Cells: Huh7, HEPG2, HEK293, MCF-7, or BxPC3 cells (which can be obtained from American Type Culture Collection, ATCC) were passaged when they were about 70% confluent. […] The cells following passaging were allowed to attach for about 24 hours at 37° C.
(§6) The plates were then returned to the incubator, and cells incubated for about 96 h at 37° C.
(§7) MTS Assay: Assay was carried out as described above.

Another data set relates to HEPG2. The experiment in a line: TC50 assay in different human cell lines (96 h), HEPG2. Type of data set: cell-based. The conditions noted are these: about 96 h, MTS assay. The method, then:
as §1, §5, §6, §7

Another data set relates to MCF-7. The data set can be described thus: TC50 assay in different human cell lines (96 h), MCF-7. Type of data set: cell-based. The conditions noted are these: MCF7, about 96 h, MTS assay. The method, then:
as §1, §5, §6, §7

A further data set has as its system BxPC3. The experiment in a line: TC50 assay in different human cell lines (96 h), BxPC3. In kind it is cell-based. As to conditions: BXPC-3, about 96 h, MTS assay. The method, then:
as §1, §5, §6, §7

A short description of data set [3]: In vivo pharmacokinetic assessment (LC-MS/MS, plasma and liver). As to conditions: mice, oral, plasma and liver samples. The method, then:
All pharmacokinetic studies were performed with CD-1 ICR mice (female, 4-6 week old; 20-30 gram body weight), and three mice were used at each dose level and at each time point for each compound tested. […] Tetrahydrouridine (THU) was immediately added to plasma samples at a final concentration of 25 μg/mL to prevent deamination of dFdC after collection, and the samples were subsequently flash-frozen and stored at −80° C. until analysis. Approximately 200-300 mg of each mouse liver was dissected and homogenized in 150 μL of phosphate buffered saline (PBS) containing 25 μg/mL THU, resulting in 2 mg liver/μL saline homogenate. These liver homogenates were also flash-frozen and stored at −80° C. until analysis. Equivalent amounts of blood plasma and liver tissue were also collected from untreated mice and used to prepare calibration standards and quality controls. An LC-MS/MS assay was utilized to simultaneously quantify the concentrations of compound 1, dFdC and dFdU in each of the plasma and liver samples.

Data set [4] in a line: Stability test at different pH conditions (HPLC). Type of data set: physicochemical. The method, then: HPLC analysis: 100 μl of the incubated solution was loaded onto a Vydac C18 analytical column 4.6/250, and the mobile phase run at 1 mL/min water with the following procedures: a. Inject 100 μl the incubated solution; b. Water for 5 minutes at 1 ml/min; c. 0-100% acetonitrile over 30 minutes; d. Back to 100% water.
Analysis: Standard HPLC analysis software was used to quantitate the area under each peak. Degradation peaks were quantitated as a percentage of the peak of the same amount of control sample (no heat treatment).

Data set [5] in a line: TC50 assay in different human cell lines (96 h), HEK293. The conditions noted are these: HEK293 cells, about 96 h, MTS assay. In kind it is cell-based. The method, then: as §1, §5, §6, §7

In the data set on HCV replicon, `O=C(Nc1ccn([C@@H]2O[C@H](CO)C(O)C2(F)F)c(=O)n1)c1ccc2c(c1)CCO2` (some centres unmarked) [Compound 5] showed an IC50 of 0.145 ± 0.017 µM. This compound also yielded a CC50 in the data set on Huh7 cells of 954 ± 247 µM.
On the same counts, the results for `CC1(C)Cc2ccc(C(=O)Nc3ccn([C@@H]4O[C@H](CO)C(O)C4(F)F)c(=O)n3)cc2O1` (some centres unmarked) [Compound 4] are 0.177 ± 0.045 µM and 1160 ± 204 µM.
`Cc1cc2c(cc1C(=O)Nc1ccn([C@@H]3O[C@H](CO)C(O)C3(F)F)c(=O)n1)OCCO2` (some centres unmarked) [Compound 8] showed an IC50 in the data set on HCV replicon of 1.69 ± 1.06 µM. Further, the CC50 with Huh7 cells turned out to be 626 ± 191 µM.
With `O=C(Nc1ccn([C@@H]2O[C@H](CO)C(O)C2(F)F)c(=O)n1)c1ccc2c(c1)OC(F)(F)O2` (some centres unmarked) [Compound 7], half-maximal inhibition in the data set with HCV replicon (IC50) was put at 0.046 ± 0.027 µM. The CC50 with Huh7 cells was determined as 188 ± 50 µM.
On the same counts, the results for `O=C(Nc1ccn([C@@H]2O[C@H](CO)C(O)C2(F)F)c(=O)n1)c1ccc2c(c1)OCCCO2` (some centres unmarked) [Compound 3] are 0.092 ± 0.008 µM and 881 ± 287 µM.
In the data set on HCV replicon, `O=C(Nc1ccn(C2O[C@H](CO)[C@@H](O)C2(F)F)c(=O)n1)c1cc2c(cc1[N+](=O)[O-])OCO2` (stereo in doubt) [Compound 9] gave a concentration for half-maximal inhibition (IC50) of 0.047 ± 0.004 µM. Moreover, in the data set with Huh7 cells, the CC50 is > 500 µM.
For the compound `Nc1ccn([C@@H]2O[C@H](CO)[C@@H](O)C2(F)F)c(=O)n1` [Gem, 4-amino-1-((2R,4R,5R)-3,3-difluoro-4-hydroxy-5-(hydroxymethyl)tetrahydrofuran-2-yl)pyrimidin-2(1H)-one, reference compound], in the data set with HCV replicon, the IC50 is 0.058 ± 0.006 µM. The CC50 is 1.92 ± 0.78 µM with PK9 cells [1] (10 μM NBTI); 193 ± 20 µM in the data set on PK9 cells [1] (10 μM dipyridamole); 0.095 ± 0.035 µM with PK9 cells [1] (ENT1 inhibitor: None); 0.095 ± 0.035 µM with PK9 cells [2]; > 500 µM in the data set with RPK9 cells; 3.41 µM in the data set on Huh7. In addition, the CC50 in the data set on HEPG2 was 0.311 µM; in the data set with MCF-7 it was 0.067 µM; with BxPC3 it was 0.0029 µM. In addition, the “first-pass metabolism to inactive metabolite dFdU” value in data set [3] was “extensive first-pass metabolism”.
`O=C(Nc1ccn([C@@H]2O[C@H](CO)C(O)C2(F)F)c(=O)n1)c1c(Br)ccc2c1OCO2` (some centres unmarked) [Compound 6] displayed an IC50 with HCV replicon of 0.34 ± 0.045 µM. For the same compound, in the data set on Huh7 cells, the CC50 was 2210 ± 821 µM.
Regarding `O=C(Nc1ccn(C2O[C@H](CO)[C@@H](O)C2(F)F)c(=O)n1)c1ccc2c(c1)OCCO2` (stereo partly drawn) [Compound 2, N-(1-((4R,5R)-3,3-difluoro-4-hydroxy-5-(hydroxymethyl)tetrahydrofuran-2-yl)-2-oxo-1,2-dihydropyrimidin-4-yl)-2,3-dihydrobenzo[b][1,4]dioxine-6-carboxamide], the IC50 in the data set on HCV replicon stood at 0.127 ± 0.009 µM. For the same compound, the CC50 turned out to be 855 ± 166 µM in the data set with Huh7 cells; 3.34 µM in the data set with Huh7; 1.13 µM in the data set with HEPG2; 1.44 µM in the data set with MCF-7; 1.15 µM in the data set on BxPC3. Further, the “Compound remaining (%)” value in [4] (Pretreatment) came out at 100%; in [4] (pH 1, 40° C., 4 h), 71%; in data set [4] (pH 2, 40° C., 4 h), 100%; in data set [4] (pH 4, 40° C., 4 h), 100%; in data set [4] (pH 6, 40° C., 4 h) it was 100%; in [4] (pH 8, 40° C., 4 h), 100%. This compound also came in with a CC50 at 96 h in [5] of 5.61 µM.

For orientation: IC50 means the concentration needed to halve the response being measured. Higher therefore signals lower potency.

For the origin of these results see US10000521B2 (priority 2013, dated 2018).
